Measurements as given in EP0745083B1, “2-HETEROARYL-5,11-DIHYDRO-6H-DIPYRIDO [3,2-b:2',3'-e][1,4]DIAZEPINES AND THEIR USE IN THE PREVENTION OR TREATMENT OF HIV INFECTION” (BOEHRINGER INGELHEIM PHARMACEUTICALS INC., priority 1994, dated 1995).

molecular target: T1, HIV-1 RT wild type (WT) enzyme (Human immunodeficiency virus type 1 group M subtype B, UniProt P03367); assay: Reverse Transcriptase (RT) Assay, wild type enzyme (RNA-dependent DNA polymerase activity); format: biochemical, Human Immunodeficiency Virus (HIV-1); conditions: 1 µM compound, read-out: Reverse Transciptase Assay % inhibition (1 µM) WT
T1 construct: Reverse transcriptase enzyme from the LAV strain of Human Immunodeficiency Virus (HIV-1) (1) was isolated from the bacterial strain JM109; made in house; host or cells: E. coli JM109 (clone pBRTprt1+ in vector pIBI21, lac promoter)
From the text: Utilizing the Reverse Transcriptase (RT) Assay described below, compounds can be tested for their ability to inhibit the RNA-dependent DNA polymerase activity of HIV-1 RT. Certain specific compounds described in the Examples which appear below, were so tested.
Among the enzymes for which Human Immunodeficiency Virus (HIV-1) encodes is a reverse transcriptase (1), so-named because it transcribes a DNA copy from an RNA template. This activity can be quantitatively measured in a cell-free enzyme assay, which has been previously described (2), and is based upon the observation that reverse transcriptase is able to use a synthetic template [poly r(C) primed with oligo d(G)] to transcribe a radio-labelled, acid-precipitable DNA strand utilizing ^3H-dGTP as a substrate. The assay described below utilizes the wild type (WT) enzyme, which is the predominant form of the enzyme observed in patients infected with HIV-1. Utilization of mutant RT eraymes (Y181C and Y181L, prepared by site-directed mutagenesis in which the tyrosine residue at codon 181 has been replaced by a cysteine or a leucine residue, respectively) and analogous assay conditions allows compounds to be evaluated for their effectiveness at inhibiting these mutant enzymes.
Reverse transcriptase enzyme from the LAV strain of Human Immunodeficiency Virus (HIV-1) (1) was isolated from the bacterial strain JM109 (3) expressing the DNA clone pBRTprt1+ (2) which is under the control of the lac promotor in the expression vector pIBI21 (4). An overnight culture grown in 2XYT medium (37°C, 225 rpm) (5) supplemented with 100 µg/mL ampicillin for positive selection is inoculated at a 1:40 dilution into M9 medium supplemented with 10µg/mL thiamine, 0.5% casamino acids, and 50 µg/mL ampicillin (5). The culture is incubated (37°C, 225 rpm) until it reaches an OD540 of 0.3-0.4. At that time the repressor inhibitor IPTG (isopropyl β-D-thiogalactopyranoside) is added to 0.5mM, and the mixture is incubated for 2 additional hours. Bacteria are pelleted, resuspended in a 50mM Tris, 0.6mM EDTA, 0.375M NaCl buffer and digested by the addition of lysozyme (1mg/mL) for 30 minutes on ice. The cells are lysed by the addition of 0.2% NP-40 and brought to 1M NaCl.
After removal of the insoluble debris by centrifugation, the protein is precipitated by the addition of 3 volumes of saturated aqueous ammonium sulfate. The enzyme is pelleted, resuspended in RT buffer (50mM Tris pH 7.5, 1mM EDTA, 5mM DTT, 0.1% NP-40, 0.1M NaCI, and 50% glycerol), and stored at -70°C for further use.
The 2X concentrated stock reaction mixture is aliquoted and stored at -20°C. The mixture is stable and thawed for use in each assay. This enzyme assay has been adapted to a 96 well microtiter plate system, and has been previously described (6). Tris buffer (50 mM, pH 7.4), vehicle (solvent diluted to match the compound dilution), or compounds in vehicle are dispensed into 96-well microtiter plates (10µL/well; 3 wells/ compound). The HIV-1 RT enzyme is thawed, diluted in 50mM Tris pH 7.4 so that fifteen µL of diluted enzyme contain 0.001 Unit (one unit is that amount of enzyme to transform 1 micromole of substrate per minute at 25°C), and fifteen µL are dispensed per well. Twenty µL of 0.12-0.5M EDTA are added to the first three wells of the microtiter plate. EDTA chelates the Mg^++ present and prevents reverse transcription. This group serves as background polymerization which is subtracted from all other groups. Twenty-five ul of the 2X reaction mixture are added to all wells and the assay is allowed to incubate at room temperature for 60 minutes. The assay is terminated by precipitating the DNA in each well with 50µL of 10% trichloracetic acid (TCA) (10% w/v) in sodium pyrophosphate (1% w/v). The microtiter plate is incubated for 15 minutes at 4°C and the precipitate is fixed onto #30 glass fiber paper (Schleicher & Schuell) using a Skatron semi-automatic harvester. […]

| Structure (SMILES) | inhibition at 1 µM [%] |
| --- | --- |
| CCN1c2ncccc2C(=O)N(C)c2ccc(-c3cn[nH]c3)nc21 [Example 1, 5,11-Dihydro-11-ethyl-5-methyl-2-(4-pyrazolyl)-6H-dipyrido[3,2-b:2'3'-e][1,4]diazepin-6-one] | 97 |
| CN1C(=O)c2cccnc2N(C2CC2)c2nc(-c3cn[nH]c3)ccc21 [Example 6, 5,11-Dihydro-5-methyl-11-c-propyl-2-(4-pyrazolyl)-6H-dipyrido[3,2-b:2',3'-e][1,4]diazepin-6-one] | 94 |
| CCN1c2ncccc2C(=O)N(C)c2ccc(-c3cc[nH]c3)nc21 [Example 12, 5,11-Dihydro-11-ethyl-5-methyl-2-(3-pyrrolyl)-6H-dipyrido[3,2-b:2',3'-e][1,4]diazepin-6-one] | 95 |
| CN1C(=O)c2cccnc2N(C2CC2)c2nc(-c3cc[nH]c3)ccc21 [Example 25, 11-Cyclopropyl-5,11-dihydro-5-methyl-2-(3-pyrrolyl)-6H-dipyrido[3,2-b:2',3'-e][1,4]diazepin-6-one] | 92 |
